Molecules are shown by their SMILES.

A short description of the series: Second-order rate constant for the alkaline hydrolysis was determined. The series is classed as ADME.
`CC1(C)S[C@@H]2[C@H](NC(=O)Cc3ccccc3)C(=O)N2[C@H]1C(=O)OCN1C(=O)c2ccccc2C1=O` showed a kHO of 65.6 M⁻¹ s⁻¹. `O=C(OCN1C(=O)c2ccc([N+](=O)[O-])cc2C1=O)c1ccccc1` yielded a kHO of 559 M⁻¹ s⁻¹.

In turn, `COc1ccc(C(=O)OCN2C(=O)c3ccccc3C2=O)cc1` gave a kHO of 33.9 M⁻¹ s⁻¹. `O=C(OCN1C(=O)c2ccccc2C1=O)c1ccc([N+](=O)[O-])cc1` had a kHO of 76.8 M⁻¹ s⁻¹.

On to `COCN1C(=O)c2ccccc2C1=O`, for which the kHO was determined as 35.3 M⁻¹ s⁻¹. `CN1C(=O)c2ccccc2C1=O` returned a kHO of 37.5 M⁻¹ s⁻¹. For the compound `O=C1c2ccccc2C(=O)N1CO[N+](=O)[O-]`, the kHO stood at 79.7 M⁻¹ s⁻¹. As for `O=C(OCN1C(=O)c2ccccc2C1=O)c1ccccc1`, the kHO stood at 50.4 M⁻¹ s⁻¹. With `O=C1c2ccccc2C(=O)N1CCl`, the kHO worked out at 105.8 M⁻¹ s⁻¹.

Compound `O=C(OCN1C(=O)c2ccccc2C1=O)c1ccc(Cl)cc1` came in with a kHO of 56.7 M⁻¹ s⁻¹. In turn, `Cc1ccc2c(c1)C(=O)N(COC(=O)c1ccccc1)C2=O` showed a kHO of 27.3 M⁻¹ s⁻¹.
